From paper PMC10285409, “Identification and validation of G protein-coupled receptors modulating flow-dependent signaling pathways in vascular endothelial cells” (Frontiers in Molecular Biosciences, 2023)

Biological target: T1, LGR4 (Homo sapiens, UniProt Q9BXB1)
T1 sequence (Q9BXB1 25-951): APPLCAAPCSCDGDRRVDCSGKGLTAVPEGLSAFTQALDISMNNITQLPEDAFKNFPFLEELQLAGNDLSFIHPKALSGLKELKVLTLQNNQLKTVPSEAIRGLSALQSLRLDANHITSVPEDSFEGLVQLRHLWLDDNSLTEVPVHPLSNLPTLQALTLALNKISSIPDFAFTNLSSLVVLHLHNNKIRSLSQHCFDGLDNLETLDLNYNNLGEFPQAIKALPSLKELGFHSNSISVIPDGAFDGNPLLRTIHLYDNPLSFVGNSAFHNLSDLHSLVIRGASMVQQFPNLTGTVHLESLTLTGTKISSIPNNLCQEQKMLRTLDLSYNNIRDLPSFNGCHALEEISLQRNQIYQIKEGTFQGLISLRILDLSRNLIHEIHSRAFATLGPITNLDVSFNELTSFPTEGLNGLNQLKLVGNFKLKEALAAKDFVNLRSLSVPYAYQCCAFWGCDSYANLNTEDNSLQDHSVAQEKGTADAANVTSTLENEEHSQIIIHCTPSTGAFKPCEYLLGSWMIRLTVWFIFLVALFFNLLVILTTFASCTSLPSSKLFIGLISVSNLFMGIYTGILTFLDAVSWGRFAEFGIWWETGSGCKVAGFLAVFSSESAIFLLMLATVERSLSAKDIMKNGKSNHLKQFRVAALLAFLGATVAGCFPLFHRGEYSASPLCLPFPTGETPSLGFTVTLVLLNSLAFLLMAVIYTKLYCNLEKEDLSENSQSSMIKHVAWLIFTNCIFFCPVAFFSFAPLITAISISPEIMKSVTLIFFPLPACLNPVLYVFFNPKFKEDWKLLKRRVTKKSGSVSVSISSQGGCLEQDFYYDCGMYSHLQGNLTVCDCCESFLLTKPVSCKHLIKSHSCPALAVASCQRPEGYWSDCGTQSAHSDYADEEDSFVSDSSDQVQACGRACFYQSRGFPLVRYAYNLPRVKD
Assay: beta-arrestin recruitment enzyme complementation in CHO-K1 LGR4 cells; KLF2-luciferase activity lost on LGR4 knockdown
Format: cell-based

| SMILES | EC50 |
| --- | --- |
| CCCCN(Cc1ccc(-c2ccccc2-c2nnn[nH]2)cc1)C(=O)NCc1ccc(Cl)cc1 [Compound 1] | 27 µM |
| CCCCOC(=O)c1c(Cl)nc(CCCC)n1Cc1cccc2c1ccn2-c1ccccc1-c1nn[nH]n1 [Compound 2] | 5 µM |
